The results in this text go back to patent US5296493A, “1-substituted-2-(N-pheny l-N-(phenylmethyl)methanamine)-4,5-dihydro-imidazoles and related compounds and their use in treating calcium overload in brain cells” (NeuroSearch A/S, priority 1991, dated 1994).

Structures can show the parent of a compound that is named as a salt.

The test system of the assay is voltage operated calcium channels. The assay is described as follows: Inhibition of potassium (depolarization) stimulated 45Ca uptake into rat cerebral cortex synaptosomes. It is filed as biochemical, male Wistar rat. Conditions: concentration inhibiting 20% of potassium stimulated 45Ca uptake, corrected for basal uptake, 145 mM KCl, 15 seconds, 37° C. From the text: A high influx of calcium from extracelluar compartments into neurons is seen after opening of voltage operated calcium channels. Such opening of calcium channels may be induced by depolarization of neuronal membranes.
A crude synaptosome preparation contains small vesicles surrounded by neuronal membranes, and it is possible to study an opening of the voltage operated calcium channels in such a preparation.
In the below described test influx of ^45 Ca into synaptosomes is studied under depolarized conditions. The effect of test substances on the depolarization induced calcium uptake can thus be studied.
The cerebral cortex from a male Wistar rat is homogenized in 20 ml ice cold 0.32M saccharose. In the following steps the temperature is kept at 0° C. to 4° C. The homogenate is centrifuged at 1,000×g for 10 minutes and the supernatant recentrifuged for 20 minutes at 18,000×g. […]
The ^45 Ca uptake is stopped by filtering through glass fibre filters, which are subsequently washed 3 times with an ice cold solution of 145 mM KCl, 7 mM EGTA and 20 mM Tris HCl, pH 7.4 (5. ml). The radioactivity on the filters are measured by liquid scintillation spectrometry. […]
The test value is given as IC20, that is the concentration in μM of the test substances, which inhibit 20% of the potassium stimulated uptake of ^45 Ca. […] The IC20 value is determined from a dose response curve.

In the case of `O=C(c1ccccc1)C(c1ccccc1)N1CCN=C1CN(Cc1ccccc1)c1ccccc1` (stereo not drawn) [1-(α-Benzoylbenzyl)-2-(N-phenyl-N-(benzyl)-methanamine)-4,5-dihydro-imidazole], the IC20 was 0.4 µM.

On to `c1ccc(CN2CCN=C2CN(Cc2ccccc2)c2ccccc2)cc1` [1-benzyl-2-(N-phenyl-N-benzyl-methanamine)-4,5-dihydro-imidazole, hydrochloride], for which the 20% effect concentration (IC20) worked out at 0.4 µM.
